Data reported in BindingDB's records for patent US10836741 (Valo Early Discovery, Inc., 2020).

Biological target: T1, Ubiquitin carboxyl-terminal hydrolase 7 [208-1102] (Human, UniProt Q93009)
T1 construct: 208-1102
Assay: USP7 Assay A (Ubitquin-Rhodamine 110 Assay)
Method: Each assay was performed in a final volume of 15 μL in assay buffer containing 20 mM Tris-HCl (pH 8.0, (1M Tris-HCl, pH 8.0 solution; Corning 46-031-CM)), 1 mM GSH (L-Glutathione reduced; Sigma # G4251), 0.03% BGG (0.22 μM filtered, Sigma, # G7516-25G), and 0.01% Triton X-100 (Sigma, # T9284-10L). Nanoliter quantities of either an 8-point or 10-point, 3-fold serial dilution in DMSO was pre-dispensed into assay plates (Perkin Elmer, ProxiPlate-384 F Plus, #6008269) for a final test concentration range of either 25 μM to 11 nM or 25 μM to 1.3 nM, respectively. The final concentration of the enzyme (USP7, construct USP7 (208-1102) 6*His, Viva Biotech) in the assay was 62.5 pM. Final substrate (Ub-Rh110; Ubiquitin-Rhodamine 110, R&D Systems # U-555) concentration was 25 nM with [Ub-Rh110]<<Km. 5 μL of 2× enzyme was added to assay plates (pre-stamped with compound) preincubated with USP7 for 30 min and then 5 μL of 2×Ub-Rh110 was added to assay plates. Plates were incubated stacked for 20 min at room temperature before 5 μL of stop solution (final concentration of 10 mM citric acid in assay buffer (Sigma, #251275-500G)). Fluorescence was read on the Envision (Excitation at 485 nm and Emission at 535 nm; Perkin Elmer) or on the PheraSTAR (Excitation at 485 nm and Emission at 535 nm; BMG Labtech).

T1 sequence (Q93009 208-1102): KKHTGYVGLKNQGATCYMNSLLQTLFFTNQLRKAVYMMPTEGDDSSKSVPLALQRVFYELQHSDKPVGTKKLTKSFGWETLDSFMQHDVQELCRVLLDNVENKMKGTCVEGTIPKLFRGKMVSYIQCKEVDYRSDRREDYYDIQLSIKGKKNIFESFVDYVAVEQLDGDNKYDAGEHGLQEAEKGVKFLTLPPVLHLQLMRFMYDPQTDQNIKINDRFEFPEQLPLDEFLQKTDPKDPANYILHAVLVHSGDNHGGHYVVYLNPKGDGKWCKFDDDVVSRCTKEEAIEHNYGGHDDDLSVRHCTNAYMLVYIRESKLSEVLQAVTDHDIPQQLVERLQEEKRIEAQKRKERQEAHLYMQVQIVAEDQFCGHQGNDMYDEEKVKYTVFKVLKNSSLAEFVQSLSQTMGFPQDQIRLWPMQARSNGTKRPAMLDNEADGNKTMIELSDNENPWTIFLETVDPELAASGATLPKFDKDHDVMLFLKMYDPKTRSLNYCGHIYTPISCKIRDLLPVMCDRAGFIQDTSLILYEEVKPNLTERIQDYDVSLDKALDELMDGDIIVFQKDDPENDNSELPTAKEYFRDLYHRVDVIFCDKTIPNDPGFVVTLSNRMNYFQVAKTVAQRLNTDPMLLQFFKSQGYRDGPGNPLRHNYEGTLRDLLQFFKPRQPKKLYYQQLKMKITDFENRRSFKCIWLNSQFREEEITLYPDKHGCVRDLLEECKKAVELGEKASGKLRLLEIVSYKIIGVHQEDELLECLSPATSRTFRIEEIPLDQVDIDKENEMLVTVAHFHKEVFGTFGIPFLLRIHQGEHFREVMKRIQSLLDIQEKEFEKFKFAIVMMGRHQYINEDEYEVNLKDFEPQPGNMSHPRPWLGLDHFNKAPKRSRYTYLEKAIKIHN

## COc1cccc2c(=O)n(CC3(O)CCN(C(=O)CC(C)c4ccccc4)CC3)cnc12 (stereo unspecified) [US10836741, Example I-6]
  IC50: < 200 nM
